Patent US20230031406A1, “COMPOUNDS AND COMPOSITIONS FOR TREATING CONDITIONS ASSOCIATED WITH NLRP ACTIVITY” (Novartis AG, priority 2018, published 2023)
Read-outs that look alike come from different tables or passages of the source. Each block holds one molecule with its values, some of them ahead of it.

System: PMA-differentiated THP-1 cells
Experiment: IL-1β production in PMA-differentiated THP-1 cells stimulated with gramicidin (hTHP-1 assay containing 2% fetal bovine serum; Procedures 1 and 2)
Assay type: cell-based, human
Conditions: 2% fetal bovine serum
In short: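 Secreted IL-1β, read by HTRF, after gramicidin challenge (5 μM, 2 h) of THP-1 cells differentiated with PMA (20 ng/ml, 16-18 h) and plated at 50,000 cells/well in 2% FBS medium. Compounds, 0.0017-100 μM final with 0.37% DMSO, were added 1 h before stimulation.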

[1] = Homo sapiens, THP-1, Table B2, class symbols, read-out: hTHP-1 IC50
[2] = Table B4, class symbols, read-out: hTHP-1 IC50
[3] = Homo sapiens, THP-1, Table B1, numeric bounds, read-out: Average IC50 of compounds in hTHP-1 assay: hTHP-1 IC50
[4] = Table B1, class symbols, read-out: Average IC50 of compounds in hTHP-1 assay: hTHP-1 IC50
[5] = Table B2, class symbols, read-out: hTHP-1 IC50
[6] = Homo sapiens, THP-1, Table B1, class symbols, read-out: Average IC50 of compounds in hTHP-1 assay: hTHP-1 IC50

Structure (SMILES): CC1(C)CCc2c1nc1c(c2NC(=O)N=S(N)(=O)c2cnn(C(F)F)c2)CCC1 (stereo not shown) [Compound 637, 1-(Difluoromethyl)-N′-((3,3-dimethyl-1,2,3,5,6,7-hexahydrodicyclopenta[b,e]pyridin-8-yl)carbamoyl)-1H-pyrazole-4-sulfonimidamide]
IC50 [1]: 5000 to 30000 nM

Structure (SMILES): CCn1cc(F)c(S(N)(=O)=NC(=O)Nc2c3c(nc4c2CCC4)CCC3)n1 (single isomer, unassigned) [Example 762, (S) or (R)-1-ethyl-4-fluoro-N′-((1,2,3,5,6,7-hexahydrodicyclopenta[b,e]pyridin-8-yl)carbamoyl)-1H-pyrazole-3-sulfonimidamide]
IC50 [2]: 5000 to 30000 nM

Structure (SMILES): CCn1ccc([S@@](N)(=O)=NC(=O)Nc2c3c(nc(C4CC4)c2C2CC2)CCC3)n1 [Compound 726a]
IC50 (Homo sapiens, THP-1, Table B2, numeric bounds, read-out: hTHP-1 IC50): > 30000 nM

Structure (SMILES): NS(=O)(=NC(=O)Nc1c2c(nc3c1CCC3)CCC2)c1ccn(CC(F)(F)F)n1 (single isomer, unassigned) [Compound 685b, (R) or (S)-N′-((1,2,3,5,6,7-hexahydrodicyclopenta [b,e]pyridin-8-yl)carbamoyl)-1-(2,2,2-trifluoroethyl)-1H-pyrazole-3-sulfonimidamide]
IC50 [1]: 1000 to 5000 nM

Structure (SMILES): CCn1cc(F)c(S(N)(=O)=NC(=O)Nc2c3c(nc(C(F)(F)F)c2-c2ccccc2)CCC3)n1 (single isomer, unassigned) [Example 768, (S) or (R)-1-ethyl-4-fluoro-N′-((3-phenyl-2-(trifluoromethyl)-6,7-dihydro-5H-cyclopenta[b]pyridin-4-yl)carbamoyl)-1H-pyrazole-3-sulfonimidamide]
IC50 [2]: 200 to 1000 nM

Structure (SMILES): CC1CCc2c1nc1c(c2NC(=O)N=S(N)(=O)c2ccn(C(C)C)n2)CCC1 (single isomer, unassigned) [Compound 129aa, (R,R) or (R,S)-1-isopropyl-N′-((3-methyl-1,2,3,5,6,7-hexa-hydrodicyclo-penta[b,e]pyridin-8-yl)carbamoyl)-1H-pyrazole-3-sulfonimidamide]
IC50 [4]: 40 to 200 nM

Structure (SMILES): CC1(C)CCc2c1nc1c(c2NC(=O)N=S(N)(=O)c2cnc(C(C)(O)CO)s2)CCC1 (single isomer, unassigned) [Compound 201e, (R, R) and (S, R) or (R, S) and (S, S)-2-(1,2-Dihydroxypropan-2-yl)-N′-((3,3-dimethyl-1,2,3.5.6.7-hexahydrodicyclopenta [b,e]pyridin-8-yl)carbamoyl)thiazole-5-sulfonimidamide]
IC50 [5]: 40 to 200 nM

Structure (SMILES): CCn1cc(F)c(S(N)(=O)=NC(=O)Nc2c3c(nc4c2CCC4)CCC3)n1 (stereo not shown) [Example 736, 1-Ethyl-4-fluoro-N′-((1,2,3,5,6,7-hexahydrodicyclopenta[b,e]pyridin-8-yl)carbamoyl)-1H-pyrazole-3-sulfonimidamide]
IC50 (Homo sapiens, THP-1, Table B4, class symbols, read-out: hTHP-1 IC50): 200 to 1000 nM

Structure (SMILES): CC(O)c1nc(C(C)(C)O)sc1S(=N)(=O)NC(=O)Nc1c2c(nc3c1CCC3)CCC2 (single isomer, unassigned) [Compound 643a, (R, R/S) or (S, R/S)-N-((1,2,3,5,6,7-hexahydrodicyclopenta [b,e]pyridin-8-yl)carbamoyl)-4-(1-hydroxyethyl)-2-(2-hydroxypropan-2-yl) thiazole-5-sulfonimidamide]
IC50 [1]: 5000 to 30000 nM

Structure (SMILES): CC(C)c1ccnc(C(C)C)c1NC(=O)N=S(N)(=O)c1cnc(C(C)(C)O)s1 (stereo not shown) [Compound 110, N′-((2,4-diisopropylpyridin-3-yl)carbamoyl)-2-(2-hydroxypropan-2-yl)thiazole-5-sulfonimidamide]
IC50 [6]: 5000 to 30000 nM

Structure (SMILES): CC1CCc2c1nc1c(c2NC(=O)N=S(N)(=O)c2ccn(C(C)C)n2)CCC1 (single isomer, unassigned) [Compound 129ab, (S,S) or (S,R)-1-isopropyl-N′-((3-methyl-1,2,3,5,6,7-hexa-hydrodicyclo-penta[b,e]pyridin-8-yl)carbamoyl)-1H-pyrazole-3-sulfonimidamide]
IC50 [3]: > 30000 nM

Structure (SMILES): CC(C)c1ncc(F)c(C(C)C)c1NC(=O)N=S(N)(=O)c1nc(C(C)(C)O)cs1 (stereo not shown) [Compound 163, N′-((5-fluoro-2,4-diisopropylpyridin-3-yl)carbamoyl)-4-(2-hydroxypropan-2-yl)thiazole-2-sulfonimidamide]
IC50 [6]: 200 to 1000 nM

Results, then the molecule that gave them:

IC50 [1]: 1000 to 5000 nM
Structure (SMILES): CCc1c(C2CC2)nc2c(c1NC(=O)N=S(N)(=O)c1cnc(C(C)(C)O)s1)CCC2 (stereo not shown) [Compound 675, N′-((2-cyclopropyl-3-ethyl-6,7-dihydro-5H-cyclopenta[b]pyridin-4-yl)carbamoyl)-2-(2-hydroxypropan-2-yl)thiazole-5-sulfonimidamide]

IC50 [3]: > 30000 nM
Structure (SMILES): CCc1c(C)nc2c(c1NC(=O)N=S(N)(=O)c1cnc(C(C)(C)O)s1)CCC2 (single isomer, unassigned) [Compound 117a, (S) or (R)-N′-((3-ethyl-2-methyl-6,7-dihydro-5H-cyclopenta[b]pyridin-4-yl)carbamoyl)-2-(2-hydroxypropan-2-yl)thiazole-5-sulfonimidamide]

IC50 [1]: 1000 to 5000 nM
Structure (SMILES): Cc1c(C(F)F)nc2c(c1NC(=O)N=S(N)(=O)c1cnc(C(C)(C)O)s1)CCC2 (single isomer, unassigned) [Compound 647a, (R) or (S)-N′-((2-(difluoromethyl)-3-methyl-6,7-dihydro-5H-cyclopenta[b]pyridin-4-yl)carbamoyl)-2-(2-hydroxypropan-2-yl)thiazole-5-sulfonimidamide]

IC50 (Table B3, hTHP-1 assay, class symbols, read-out: IC50): 8 to 40 nM
Structure (SMILES): CCn1cc(F)c(S(N)(=O)=NC(=O)Nc2c3c(nc(C4CC4)c2C2CC2)CCC3)n1 (single isomer, unassigned) [Example 707, (R) or (S)-N′-((2,3-dicyclopropyl-6,7-dihydro-5H-cyclopenta[b]pyridin-4-yl)carbamoyl)-1-ethyl-4-fluoro-1H-pyrazole-3-sulfonimidamide]

IC50 [4]: 200 to 1000 nM
Structure (SMILES): Cc1sc(S(N)(=O)=NC(=O)Nc2c3c(nc4c2CCC4)CCC3)cc1C(C)(C)O (single isomer, unassigned) [Compound 107a, (R) or (S)-N′-((1,2,3,5,6,7-hexahydrodicyclo-penta[b,e]pyridin-8-yl)carbamoyl)-4-(2-hydroxypropan-2-yl)-5-methylthiophene-2-sulfonimidamide]

IC50 [4]: 1000 to 5000 nM
Structure (SMILES): CC(C)(O)c1ncc(S(N)(=O)=NC(=O)Nc2c3c(nc4c2CCC4)CCCC3)s1 (single isomer, unassigned) [Compound 161b, (R) or (S)-N′-((2,3,5,6,7,8-hexahydro-1H-cyclopenta[b]quinolin-9-yl)carbamoyl)-2-(2-hydroxypropan-2-yl)thiazole-5-sulfonimidamide]

IC50 [5]: 5000 to 30000 nM
Structure (SMILES): Cc1cc(S(N)(=O)=NC(=O)Nc2c3c(nc4c2CCC4)CCC3)sc1C(C)(C)O (single isomer, unassigned) [Compound 692a, (S) or (R)-N′-((1,2,3,5,6,7-hexahydrodicyclopenta [b,e]pyridin-8-yl)carbamoyl)-5-(2-hydroxypropan-2-yl)-4-methylthiophene-2-sulfonimidamide]

IC50 (Homo sapiens, THP-1, Table B3, hTHP-1 assay, class symbols, read-out: IC50): 200 to 1000 nM
Structure (SMILES): C[C@@](O)(CO)c1cc(F)c(S(N)(=O)=NC(=O)Nc2c3c(nc4c2CCC42CC2)CCC3)s1 (stereo partly drawn) [Example 607, 5-((R)-1,2-dihydroxypropan-2-yl)-3-fluoro-N′-((1′,5′,6′,7′-tetrahydro-2′H-spiro[cyclopropane-1,3′-dicyclopenta[b,e]pyridin]-8′-yl)carbamoyl)thiophene-2-sulfonimidamide]

IC50 [5]: 1000 to 5000 nM
Structure (SMILES): Cc1cc(S(N)(=O)=NC(=O)Nc2c3c(nc4c2CCC4)CCC3)sc1C(C)(C)O (single isomer, unassigned) [Compound 692b, (R) or (S)-N′-((1,2,3,5,6,7-hexahydrodicyclopenta [b,e]pyridin-8-yl)carbamoyl)-5-(2-hydroxypropan-2-yl)-4-methylthiophene-2-sulfonimidamide]

IC50 [4]: 40 to 200 nM
Structure (SMILES): Cc1c(C2CC2)nc2c(c1NC(=O)N=S(N)(=O)c1sc(C(C)(C)O)cc1F)CCC2 (single isomer, unassigned) [Compound 174b, (S) or (R)-N′-((2-cyclopropyl-3-methyl-6,7-dihydro-5H-cyclopenta[b]pyridin-4-yl)carbamoyl)-3-fluoro-5-(2-hydroxypropan-2-yl)thiophene-2-sulfonimidamide]

IC50 [6]: 1000 to 5000 nM
Structure (SMILES): CC(C)(O)c1nc(CO)c(S(N)(=O)=NC(=O)Nc2c3c(nc4c2CCC4)CCC3)s1 (stereo not shown) [Compound 150, N′-((1,2,3,5,6,7-hexahydrodicyclopenta[b,e]pyridin-8-yl)carbamoyl)-4-(hydroxymethyl)-2-(2-hydroxypropan-2-yl)thiazole-3-sulfonimidamide]

IC50 [5]: 40 to 200 nM
Structure (SMILES): C[C@@H]1CCc2c1nc1c(c2NC(=O)N=S(N)(=O)c2ccn(C(C)(F)F)n2)CCC1 (single isomer, unassigned) [Compound 723b, (R) or (S)-1-(1,1-Difluoroethyl)-N′-(((R)-3-methyl-1,2,3,5,6,7-hexahydrodicyclopenta [b,e]pyridin-8-yl)carbamoyl)-1H-pyrazole-3-sulfonimidamide]

IC50 [6]: 1000 to 5000 nM
Structure (SMILES): Cn1nc(S(N)(=O)=NC(=O)Nc2c3c(nc4c2CCC4)CCC3)cc1C(C)(C)O (single isomer, unassigned) [Compound 158a, (R) or (S)-N′-((1,2,3,5,6,7-hexahydrodicyclo-penta[b,e]pyridin-8-yl)carbamoyl)-5-(2-hydroxypropan-2-yl)-1-methyl-1H-pyrazole-3-sulfonimidamide]
